Experimental data published in patent publication US20230251278A1, “ACQUISITION METHOD OF VALUE RELATING TO TRIGLYCERIDE METABOLIC CAPACITY, PRESENTATION METHOD OF DISEASE INFORMATION, PRESENTATION METHOD OF DISEASE DIFFERENTIATION INFORMATION, PRESENTATION METHOD OF THERAPY EFFICACY INFORMATION, PRESENTATION METHOD OF THERAPEUTIC EFFECT INFORMATION, TEST REAGENT …” (OSAKA UNIVERSITY, priority 2020, published 2023).

Assays:
[1] = tested on: leucocytes (neutrophils, monocytes, lymphocytes); test: Uptake of fluorescence-labeled BMPP by leucocytes in whole blood (FACS); type: cell-based, human; settings: monocytes and lymphocytes, whole blood of healthy individual, 0.0074, 0.022, 0.067, 0.2 μM, room temperature 30 minutes
Method: Each 200 μl of whole blood collected from a healthy individual using a blood collection tube containing heparin was used as a sample. As a fluorescent-labeled BMPP-added group, the Alexa Fluor™ 680-BMPP prepared in the experimental example 1 was added to the samples so that a final concentration of the Alexa Fluor™ 680-BMPP was 0.0074 μM, 0.022 μM, 0.067 μM, and 0.2 μM, respectively. As a negative control group, Alexa Fluor™ 680 NHS Ester hydrolysate (hereinafter, simply referred to as Alexa Fluor™ 680) was added to the samples so that a final concentration of the Alexa Fluor™ 680 was 0.0074 μM, 0.022 μM, 0.067 μM, and 0.2 μM, respectively. […]
After the uptake is completed, 2 ml of BD FACS Lysing Solution (BD Biosciences) was added to the sample, and the mixture was allowed to stand at room temperature for 30 minutes to hemolyze erythrocytes, and then leucocytes were collected as precipitates by centrifugation at room temperature at 1500 rpm for 30 minutes, and resuspended in PBS to prepare a sample for FACS analysis. The FACS analysis was performed by preparing gates containing lymphocytes, monocytes, or neutrophils in advance by dot plots of forward-scattered light and side-scattered light using leucocytes prepared in the same manner without adding the Alexa Fluor™ 680-BMPP, and measuring the number of cells until […] cells were counted in the gate. […]

[2] = tested on: leucocytes (neutrophils, monocytes, lymphocytes); test: Uptake and excretion of Alexa Fluor 680-BMPP by leucocytes of healthy individuals and primary TGCV patients (FACS); type: cell-based, human
Method: 5.5 ml of whole blood collected from healthy individuals and patients using the blood collection tube containing heparin was added with the leucocyte separating agent (HetaSep, Veritas Corporation) in an amount of one fifth of the whole blood, leucocytes were collected according to a manufacturer's instruction, and the cells were resuspended in 2.1 ml of DMEM medium without serum (hereinafter, DMEM serum-free medium). Alexa Fluor™ 680-BMPP uptake ability and Alexa Fluor™ 680-BMPP excretion ability of the leucocytes were measured using 400 μl each as described below.
40 μl of the Alexa Fluor™ 680-BMPP or 40 μl of the Alexa Fluor™ 680 was added to 400 μl of the cell resuspension so that a final concentration of the Alexa Fluor™ 680-BMPP or the Alexa Fluor™ 680 was 0.067 μM, and a reaction for uptake the fluorescence-labeled substance was performed by standing at room temperature for 30 minutes. A sample for measurement immediately after the uptake was added with BD FACS Lysing Solution immediately after the reaction to be hemolyzed and then, subjected to FACS. On the other hand, as for a sample for measurement of excretion, the Alexa Fluor™ 680-BMPP or the Alexa Fluor™ 680 was removed from the sample by centrifugation at room temperature, cells were resuspended in 500 μl of DMEM serum-free medium, and the cells were allowed to stand at 37° C. for 2 hours to be subjected to an excretion reaction of the taken Alexa Fluor™ 680-BMPP or Alexa Fluor™ 680, then BD FACS Lysing Solution was added, and the sample was subjected to FACS in the same manner as the sample immediately after the uptake. FACS analysis was performed in the same manner as described in the experimental example 2, and for each of neutrophils, monocytes, and lymphocytes, fluorescence intensity of the sample immediately after uptake was compared with fluorescence intensity of the sample for measurement of excretion.

[3] = tested on: leucocytes (neutrophils, monocytes, lymphocytes); test: Influence of excretion time on Alexa Fluor 680-BMPP excretion amount (FACS); type: cell-based, human; settings: leucocytes of two healthy individuals; 0.067 μM; 37° C.; histograms did not shift from 10 to 120 minutes
Method: 6 ml of each whole blood collected from two healthy individuals using the blood collection tube containing heparin was added with the HetaSep (Veritas Corporation) in an amount of one fifth of the whole blood, leucocytes were collected according to the manufacturer's instruction, and the cells were resuspended in 2.1 ml of the DMEM serum-free medium. Alexa Fluor™ 680-BMPP uptake ability and Alexa Fluor™ 680-BMPP excretion ability of the leucocytes were measured using 400 μl each as described below.
40 μl of the Alexa Fluor™ 680-BMPP was added to 400 μl of the cell resuspension so that a final concentration of the Alexa Fluor™ 680-BMPP was 0.067 μM, and a reaction for uptake the Alexa Fluor™ 680-BMPP was performed by standing at room temperature for 30 minutes. A sample for measurement immediately after the uptake was added with BD FACS Lysing Solution immediately after the reaction to be hemolyzed and then, subjected to FACS. […] FACS analysis was performed in the same manner as described in the experimental example 2, and for each of neutrophils, monocytes, and lymphocytes, fluorescence intensities at each excretion time were compared each other.

[4] = tested on: leucocytes (neutrophils) of the case 1 patient; test: Ability of leucocytes to excrete Alexa Fluor 680-BMPP before and after tricaprin treatment; type: in vivo, human
Method: Next, the abilities for taking up and for excreting the Alexa Fluor™ 680-BMPP were compared using whole blood collected from the patients in the case 1 described in the above 6-2. before and after the tricaprin treatment.
Preparation of the leucocyte and measurement of the abilities for taking up and for excreting the Alexa Fluor™ 680-BMPP using the leucocyte cells were performed according to the experimental examples.

[5] = tested on: triglyceride deposit-type atherosclerosis of the coronary artery; test: MCT dietary therapy: coronary artery CT evaluation of fat accumulated in coronary arteries; type: in vivo, human
Method: A person with genetic ATGL (Adipose triglyceride lipase) deficiency. Since it was confirmed that the patient was suffering from triglyceride deposit-type atherosclerosis by coronary CT inspection, MCT dietary therapy was started. The patient ingested 6 to 9 g of tricaprin as the MCT per 1 day, 3 times a day after meals for 50 days.
Before the start of the MCT dietary therapy and after 50 days from the start of the MCT dietary therapy, normal coronary artery CT was performed to acquire a three-dimensional DICOM image of the left anterior descending branch. The samples were resampled in 0.1 mm^3 of voxels and layer-by-layer coloring was performed based on intra-voxel CT values. Smoothing was performed between voxels. The layer-by-layer coloring was performed as follows.
Light gray: between −25 HU to 0 HU (fat content is high) Middle gray 0 HU to 40 HU (fat content is medium) Dark gray: 40 HU to 125 HU (no fat) (iii) Results
A person who has suffered from refractory angina pectoris for years. Even when a combination treatment of a plurality of antianginal drugs and statins or the like was performed, the angina pectoris was rather exacerbated. Since it was confirmed that the patient was suffering from triglyceride deposit-type atherosclerosis by coronary CT inspection, MCT dietary therapy was started. The patient ingested 1.5 g of tricaprin as the MCT per 1 day, 3 times a day after meals for 4 years.
Before the start of the MCT dietary therapy and after 4 years from the start of the MCT dietary therapy, normal coronary artery CT was performed, and the layer-by-layer coloring of the inside of the left anterior descending branch was performed in the same manner as described in the case 1.

15-phenyl-3-methylpentadenoic acid labeled with Alexa Fluor™ 680 [Alexa Fluor™ 680-BMPP]
uptake amount of the Alexa Fluor 680-BMPP (shift of fluorescence intensity histogram) [1]: concentration dependent increase | ability to excrete the Alexa Fluor 680-BMPP, primary TGCV patient versus healthy individuals ([2]; leucocytes, overall conclusion): lower | ability to excrete the Alexa Fluor 680-BMPP (leftward shift of fluorescence intensity) ([2]; lymphocytes of healthy individuals, 0.067 μM, excretion 37° C. 2 hours): demonstrated | ability to excrete the Alexa Fluor 680-BMPP compared to healthy individuals ([2]; lymphocytes of primary TGCV patients, 0.067 μM, excretion 37° C. 2 hours): reduced | ability to excrete the Alexa Fluor 680-BMPP (leftward shift of histogram) ([2]; neutrophils of healthy individuals, 0.067 μM, excretion 37° C. 2 hours): sufficiently demonstrated | ability to excrete the Alexa Fluor 680-BMPP compared to healthy individuals ([2]; neutrophils of primary TGCV patients, 0.067 μM, excretion 37° C. 2 hours): clearly reduced | excretion time at which the taken Alexa Fluor 680-BMPP was sufficiently excreted (almost background) [3]: 10 min | ability for excreting the Alexa Fluor 680-BMPP compared to healthy individuals ([4]; leucocytes (neutrophils) of case 1 patient before the start of the treatment): clearly reduced

CCCCCCCCCC(=O)OCC(COC(=O)CCCCCCCCC)OC(=O)CCCCCCCCC [tricaprin]
effect on triglyceride deposit-type atherosclerosis of the coronary artery (coronary CT) ([5]; case 1: genetic ATGL deficiency, 6 to 9 g per day, 50 days): regression | effect on triglyceride deposit-type atherosclerosis of the coronary artery (coronary CT) ([5]; case 2: refractory angina pectoris, 1.5 g per day, 4 years): regression | diameter of the blood flow site (coronary CT) ([5]; case 2, 1.5 g per day, 4 years): significantly increased | ability for excreting the Alexa Fluor 680-BMPP in the patient after the treatment ([4]; case 1 patient leucocytes after tricaprin (MCT dietary therapy) treatment): restored to the same level as in healthy individuals
